From patent publication US20110098177A1, “METHODS AND COMPOSITIONS OF PLANT MICRONUTRIENTS” (NOVUS INTERNATIONAL INC., priority 2006, published 2011)

Legend:
Format in all cases: in vivo
Tygress tomato plants [1] = experiment: Nutrient concentration of tomato fruits at 10 WAT, open field (Examples 7-10)
Method: (§1) The following experiments were performed in open-field plots during the spring of 2008 at GCREC, Balm, University of Florida. Four products delivering Zn (BIOX-Z), Mn (BIOX-M), Cu (BIOX-Cu), and Fe (BIOX-Fe) were compared to other micronutrient supplement formulations in tomato and bell pepper plants.
(§2) The plot sizes for the tomato plants were 30-ft plots (15 plants per plot) and 15-ft plots were used for the bell pepper plants (30 plants per plot). Crop set-up, procedures and variables were as follows.
(§3) Transplants of ‘Tygress’ tomato plants and ‘Patriot’ bell pepper plants in the 4-true leaf stage (about 6 inches tall) were planted in raised beds in open-field plots. The cross-section of each raised bed was 28 inches wide at the top, 32 inches wide at the base, and 8 inches tall. Irrigation and non-micronutrient fertilizer were provided daily through two drip lines per bed (0.45 gal/100 ft bed/min) at recommended rates for tomato and bell pepper production in Florida. […] The height of the plants for each of the treatment groups was measured at 3 weeks after transplantation (WAT), just prior to treatment with the experimental foliar fertilizers.
(§4) All foliar fertilizers except BIOX-CM were applied to the various treatment groups at 3 weeks after transplantation (WAT) and again at 5 WAT. The BIOX-CM treatment was applied at 4 and 5 WAT. The working water volume was 60 gal/acre and a non-ionic surfactant (Ad-Spray 80) was added in the amount of 2 pints/100 gal water. All plots were sprayed with sprayers pressurized at 25 psi and the canopies of both crops were covered with the micronutrient solutions. Treated plots were isolated during foliar fertilizer application to avoid the cross-contamination of other treatments on adjoining plots.
(§5) Leaf samples were collected from the most recent mature leaves from each plant at 6 WAT (2 weeks after initial treatment). Foliar tissue analysis was performed by a commercial laboratory to determine the concentration of N, P, K, Mg, Ca, B, Zn, Mn, Fe, and Cu. Tomato marketable fruit weights were collected at 10 and 12 WAT, and the fruits were graded according to USDA standards. Pepper marketable fruit weights were determined beginning at 5 WAT over 5 weekly harvests. Fruit mineral analysis (N, P, K, Mg, Ca, B, Zn, Mn, Fe, and Cu) was performed on samples from the tomato harvest.
(§6) The experimental design was a randomized complete block design with 5 replications for each treatment. All comparison data were analyzed using a general linear model and the means of each treatment were separated with a Fisher's protected LSD test at the 5% significance level.

[2] = tested on: Patriot bell pepper plants; experiment: Marketable yield, open-field bell pepper (Examples 7-10)
Method: as §1, §2, §3, §4, §5, §6

Florida-47 tomato = conditions: in vivo
Method: (§7) The following experiments were performed in a green house during the fall of 2007 at GCREC, Balm, University of Florida. Fifteen products, at 3 different application rates were examined. The plot size was 2-gallon pots. Crop set-up, procedures and variables were as follows.
(§8) Transplants of ‘Florida-47’ tomato and ‘Aristotle’ bell pepper plants in the 4-true leaf stage (about 6 inches tall) were planted in 2-gal pots on Aug. 27, 2007. Pots were filled with a commercially available planting medium. This medium was selected based on the mineral composition of the products to be applied without providing significant nutritional inputs to the crops. Irrigation was provided with drip lines delivering between 0.50 and 0.33 gal/day/pot for tomato and bell pepper, respectively, and the crops were irrigated three times per day. No foliar pesticides were necessary.
(§9) There were four control treatments corresponding to each target micronutrient in which non-Fe, non-Mn, non-Zn or non-Cu pots received all other essential nutrients under non-limiting conditions.
(§10) Treatments were applied at three rates (high, medium and low) obtained from the estimated concentration of Zn, Fe, Cu, and Mn foliarly-applied in tomato and bell pepper in field situations (Table 1). Products were weighed and dissolved in 200 ml of deionized water with a non-ionic surfactant and applied to the newly-matured open leaves of each crop at 3 and 7 weeks after transplant (WAT). Treated pots were isolated during application to avoid cross-contamination of other treatments.
(§11) Medium nutrient concentration was determined 1 week before treatment. The mineral composition of the medium was 26.8 ppm NH4—N, 49 ppm NO3—N, 15.8 ppm P, 91.2 ppm K, 82.3 ppm Ca, 58.2 ppm Mg, 23.9 ppm Na, 125.6 ppm S, 1.33 ppm Fe, 0.39 ppm Mn, 0.35 ppm Zn, 0.05 pp, Cu, 0.04 ppm B, 0 ppm Mo, 0.73 ppm Al, and 12.1 ppm Si. The pH of the medium was 5.36 and the electric conductivity was 1.38 mS/cm. The foliar tissue analysis was performed at 6 WAT and the concentration of N, P, K, Mg, Ca, S, B, Zn, Mn, Fe, and Cu was determined by a commercial laboratory. Plant toxicity was determined at 4 WAT by using a 0-10 visual scale, where 0=no visible damage and 10=total plant death. Marketable fruit weight was collected 2 times in bell pepper and 4 times in tomato following USDA standards.
(§12) Data were analyzed using a general linear model, and means were separated using orthogonal contrasts at the 5% significance level.

Aristotle bell pepper = conditions: in vivo
Method: as §7, §8, §9, §10, §11, §12

Tygress tomato plants [3] = experiment: Marketable yield, open-field tomato (Examples 7-10)
Method: as §1, §2, §3, §4, §5, §6

Tygress tomato plants [4] = experiment: Foliar nutrient concentration at 6 WAT, open-field tomato (Examples 7-10)
Method: as §1, §2, §3, §4, §5, §6

[5] = tested on: Patriot bell pepper plants; experiment: Foliar nutrient concentration at 6 WAT, open-field bell pepper (Examples 7-10)
Method: as §1, §2, §3, §4, §5, §6

[6] = 10 WAT, open field, product rate as Table 17
[7] = open field, lb/acre/season: BIOX-Z 1.3, Cu 6.7, M 23.0, Fe 3.2, INC 4.0, INZ 0.6, CM 10.0, GZ 1.0, GF 4.0, EDZ 1.4, EDM 23.0
[8] = 6 WAT, open field, product rate as Table 17

Compound: NCC(=O)[O-].NCC(=O)[O-].[Zn+2] [BIOX-GZ, zinc glycinate]
- B concentration of tomato fruits (Tygress tomato plants [1]; in vivo): 23 ppm
- Ca concentration of tomato fruits (Tygress tomato plants [1]; in vivo): 0.2%
- Cu concentration of tomato fruits (Tygress tomato plants [1]; in vivo): 23 ppm
- Fe concentration of tomato fruits (Tygress tomato plants [1]; in vivo): 87 ppm
- K concentration of tomato fruits (Tygress tomato plants [1]; in vivo): 7.8%
- Mg concentration of tomato fruits (Tygress tomato plants [1]; in vivo): 0.37%
- Mn concentration of tomato fruits (Tygress tomato plants [1]; in vivo): 43 ppm
- N concentration of tomato fruits (Tygress tomato plants [1]; in vivo): 4.3%
- P concentration of tomato fruits (Tygress tomato plants [1]; in vivo): 0.61%
- Zn concentration of tomato fruits (Tygress tomato plants [1]; in vivo): 379 ppm
- Marketable yield, Bell Pepper ([2]; in vivo): 6.3 ton/acre
- Tomato toxicity (Florida-47 tomato): 0
- Pepper toxicity (Aristotle bell pepper): 0
- Marketable yield, Tomato (Tygress tomato plants [3]; in vivo): 16.8 ton/acre
- Tomato marketable yield compared to control, statement (Tygress tomato plants [3]; in vivo): significantly higher than the control tomato harvest
- Foliar B concentration of tomato plants (Tygress tomato plants [4]; in vivo): 44 ppm
- Foliar Ca concentration of tomato plants (Tygress tomato plants [4]; in vivo): 1.8%
- Foliar Cu concentration of tomato plants (Tygress tomato plants [4]; in vivo): 482 ppm
- Foliar Fe concentration of tomato plants (Tygress tomato plants [4]; in vivo): 94 ppm
- Foliar K concentration of tomato plants (Tygress tomato plants [4]; in vivo): 5.0%
- Foliar Mg concentration of tomato plants (Tygress tomato plants [4]; in vivo): 0.61%
- Foliar Mn concentration of tomato plants (Tygress tomato plants [4]; in vivo): 278 ppm
- Foliar N concentration of tomato plants (Tygress tomato plants [4]; in vivo): 4.6%
- Foliar P concentration of tomato plants (Tygress tomato plants [4]; in vivo): 0.22%
- Foliar Zn concentration of tomato plants (Tygress tomato plants [4]; in vivo): 369 b ppm
- Foliar B concentration of bell pepper plants ([5]; in vivo): 59 ppm
- Foliar Ca concentration of bell pepper plants ([5]; in vivo): 4.2%
- Foliar Cu concentration of bell pepper plants ([5]; in vivo): 429 ppm
- Foliar Fe concentration of bell pepper plants ([5]; in vivo): 118 ppm
- Foliar K concentration of bell pepper plants ([5]; in vivo): 3.4%
- Foliar Mg concentration of bell pepper plants ([5]; in vivo): 0.49%
- Foliar Mn concentration of bell pepper plants ([5]; in vivo): 282 ppm
- Foliar N concentration of bell pepper plants ([5]; in vivo): 4.4%
- Foliar P concentration of bell pepper plants ([5]; in vivo): 0.24%
- Foliar Zn concentration of bell pepper plants ([5]; in vivo): 145 a ppm
- Foliar Zn concentration of bell pepper plants compared to control, statement ([5]; in vivo): significantly higher foliar concentration of Zn

Compound: iron glycinate [BIOX-GF]
- Nutrient concentration of tomato fruits: B (Tygress tomato plants [1]; in vivo): 21 ppm
- Nutrient concentration of tomato fruits: Ca (Tygress tomato plants [1]; in vivo): 0.2%
- Nutrient concentration of tomato fruits: Cu (Tygress tomato plants [1]; in vivo): 22 ppm
- Nutrient concentration of tomato fruits: Fe (Tygress tomato plants [1]; in vivo): 85 ppm
- Nutrient concentration of tomato fruits: K (Tygress tomato plants [1]; in vivo): 8.5%
- Nutrient concentration of tomato fruits: Mg (Tygress tomato plants [1]; in vivo): 0.38%
- Nutrient concentration of tomato fruits: Mn (Tygress tomato plants [1]; in vivo): 42 ppm
- Nutrient concentration of tomato fruits: N (Tygress tomato plants [1]; in vivo): 4.3%
- Nutrient concentration of tomato fruits: P (Tygress tomato plants [1]; in vivo): 0.71%
- Nutrient concentration of tomato fruits: Zn (Tygress tomato plants [1]; in vivo): 332 ppm
- Marketable yield, Bell Pepper ([2]; in vivo): 7.0 ton/acre
- Tomato toxicity (Florida-47 tomato): 0
- Pepper toxicity (Aristotle bell pepper): 0
- Marketable yield, Tomato (Tygress tomato plants [3]; in vivo): 18.5 a ton/acre
- Tomato marketable yield compared to control, statement (Tygress tomato plants [3]; in vivo): significantly higher tomato marketable yield compared to control
- Foliar B concentration of tomato plants (Tygress tomato plants [4]; in vivo): 21 ppm
- Foliar Ca concentration of tomato plants (Tygress tomato plants [4]; in vivo): 0.2%
- Foliar Cu concentration of tomato plants (Tygress tomato plants [4]; in vivo): 22 ppm
- Foliar Fe concentration of tomato plants (Tygress tomato plants [4]; in vivo): 85 ppm
- Foliar K concentration of tomato plants (Tygress tomato plants [4]; in vivo): 8.5%
- Foliar Mg concentration of tomato plants (Tygress tomato plants [4]; in vivo): 0.38%
- Foliar Mn concentration of tomato plants (Tygress tomato plants [4]; in vivo): 42 ppm
- Foliar N concentration of tomato plants (Tygress tomato plants [4]; in vivo): 4.3%
- Foliar P concentration of tomato plants (Tygress tomato plants [4]; in vivo): 0.71%
- Foliar Zn concentration of tomato plants (Tygress tomato plants [4]; in vivo): 332 ppm
- Foliar nutrient concentration: B ([5]; in vivo): 43 ppm
- Foliar nutrient concentration: Ca ([5]; in vivo): 1.8%
- Foliar nutrient concentration: Cu ([5]; in vivo): 453 ppm
- Foliar nutrient concentration: Fe ([5]; in vivo): 305 ppm
- Foliar nutrient concentration: K ([5]; in vivo): 5.7%
- Foliar nutrient concentration: Mg ([5]; in vivo): 0.58%
- Foliar nutrient concentration: Mn ([5]; in vivo): 266 ppm
- Foliar nutrient concentration: N ([5]; in vivo): 5.0%
- Foliar nutrient concentration: P ([5]; in vivo): 0.21%
- Foliar nutrient concentration: Zn ([5]; in vivo): 322 ppm

Compound: manganese citrate [BIOX-CM]
- B concentration of tomato fruits (Tygress tomato plants [1]; [6]): 22 ppm
- Ca concentration of tomato fruits (Tygress tomato plants [1]; [6]): 0.2%
- Cu concentration of tomato fruits (Tygress tomato plants [1]; [6]): 21 b ppm
- Fe concentration of tomato fruits (Tygress tomato plants [1]; [6]): 73 b ppm
- K concentration of tomato fruits (Tygress tomato plants [1]; [6]): 7.9%
- Mg concentration of tomato fruits (Tygress tomato plants [1]; [6]): 0.37%
- Mn concentration of tomato fruits (Tygress tomato plants [1]; [6]): 40 b ppm
- N concentration of tomato fruits (Tygress tomato plants [1]; [6]): 4.2%
- P concentration of tomato fruits (Tygress tomato plants [1]; [6]): 0.57%
- Zn concentration of tomato fruits (Tygress tomato plants [1]; [6]): 217 b ppm
- Marketable yield, Bell Pepper [2, 7]: 8.0 ton/acre
- Marketable yield, Tomato (Tygress tomato plants [3]; [7]): 13.9 b ton/acre
- Foliar concentration of Mn of tomato plants, statement (Tygress tomato plants [4]; 6 WAT, open field): significantly higher foliar concentration of Mn compared to control
- Foliar B concentration of tomato plants (Tygress tomato plants [4]; [8]): 43 ppm
- Foliar Ca concentration of tomato plants (Tygress tomato plants [4]; [8]): 1.8%
- Foliar Cu concentration of tomato plants (Tygress tomato plants [4]; [8]): 326 ppm
- Foliar Fe concentration of tomato plants (Tygress tomato plants [4]; [8]): 85 ppm
- Foliar K concentration of tomato plants (Tygress tomato plants [4]; [8]): 5.0 b %
- Foliar Mg concentration of tomato plants (Tygress tomato plants [4]; [8]): 0.66%
- Foliar Mn concentration of tomato plants (Tygress tomato plants [4]; [8]): 272 b ppm
- Foliar N concentration of tomato plants (Tygress tomato plants [4]; [8]): 5.1%
- Foliar P concentration of tomato plants (Tygress tomato plants [4]; [8]): 0.24 a %
- Foliar Zn concentration of tomato plants (Tygress tomato plants [4]; [8]): 242 b ppm
- Foliar B concentration of bell pepper plants [5, 8]: 63 ppm
- Foliar Ca concentration of bell pepper plants [5, 8]: 4.2%
- Foliar Cu concentration of bell pepper plants [5, 8]: 364 ppm
- Foliar Fe concentration of bell pepper plants [5, 8]: 121 ppm
- Foliar K concentration of bell pepper plants [5, 8]: 3.6%
- Foliar Mg concentration of bell pepper plants [5, 8]: 0.47%
- Foliar Mn concentration of bell pepper plants [5, 8]: 594 ppm
- Foliar N concentration of bell pepper plants [5, 8]: 4.3%
- Foliar P concentration of bell pepper plants [5, 8]: 0.23%
- Foliar Zn concentration of bell pepper plants [5, 8]: 44 ppm
